Measurements as given in patent US20240182427A1, “SOLID DOSAGE FORMS OF A PLASMA KALLIKREIN INHIBITOR” (Rezolute, Inc., priority 2022, published 2024).
Blank lines part the entries; values can stand above or below the molecule they belong to.

How the values were obtained:
[1] = Aqueous solubility of anhydrous Crystalline Form I; assay type: physicochemical; conditions: water (aqueous); anhydrous Crystalline Form I of acetate salt, at 25° C.
[2] = Intestinal permeability / solubility classification (BCS)
[3] = tested on: angiotensin-II-treated rodents; conditions: cited from earlier work
[4] = tested on: rat model of ischemic stroke; conditions: cited from earlier work
[5] = tested on: model of hemorrhagic stroke; conditions: cited from earlier work
[6] = tested on: patients with hereditary angioedema; conditions: cited from earlier work
[7] = tested on: animal model of ischemic stroke; conditions: cited from earlier work
[8] = tested on: mouse model of middle cerebral artery occlusion; conditions: cited from earlier work

solubility [1]: ~8300 µg/mL | BCS class [2]: BCS Class 3 | solubility [2]: high
Molecule: N=C(N)c1ccc(CNC(=O)c2cnn(Cc3ccccc3)c2)cc1 [Compound 1, 1-benzyl-1H-pyrazole-4-carboxylic acid 4-carbamimidoylbenzylamide]
retinal vascular permeability [3]: reduce | cerebrovascular edema [4]: reduce | infarction volume [4]: reduce | expansion of intracerebral hemorrhage [5]: reduce

Molecule: NC(N)=NCCC[C@@H](N)C(=O)N[C@@H](CCCN=C(N)N)C(=O)N1CCC[C@H]1C(=O)N1C[C@H](O)C[C@H]1C(=O)NCC(=O)N[C@@H](Cc1cccs1)C(=O)N[C@@H](CO)C(=O)N1Cc2ccccc2C[C@@H]1C(=O)N1[C@H](C(=O)N[C@@H](CCCN=C(N)N)C(=O)O)C[C@@H]2CCCC[C@@H]21 [icatibant]
treating hereditary angioedema ([6]; human, in vivo): effective

Molecule: Hoe-140 [reference compound]
retinal vascular permeability [3]: reduce

Molecule: ecallantide
brain edema [7]: reduced | infarct volume [7]: reduced | neurological deficits [7]: reduced | edema in patients with hereditary angioedema ([6]; patients): alleviates

B1: C1-INH: the major endogenous inhibitor of PK (protein, UniProt P05155 23-500, looked up)
Plasma protease C1 inhibitor: NPNATSSSSQDPESLQDRGEGKVATTVISKMLFVEPILEVSSLPTTNSTTNSATKITANTTDEPTTQPTTEPTTQPTIQPTQPTTQLPTDSPTQPTTGSFCPGPVTLCSDLESHSTEAVLGDALVDFSLKLYHAFSAMKKVETNMAFSPFSIASLLTQVLLGAGENTKTNLESILSYPKDFTCVHQALKGFTTKGVTSVSQIFHSPDLAIRDTFVNASRTLYSSSPRVLSNNSDANLELINTWVAKNTNNKISRLLDSLPSDTRLVLLNAIYLSAKWKTTFDPKKTRMEPFHFKNSVIKVPMMNSKKYPVAHFIDQTLKAKVGQLQLSHNLSLVILVPQNLKHRLEDMEQALSPSVFKAIMEKLEMSKFQPTLLTLPRIKVTTSQDMLSIMEKLEFFDFSYDLNLCGLTEDPDLQVSAMQHQTVLELTETGVEAAAASAISVARTLLVFEVQQPFLFVLWDQQHKFPVFMGRVYDPRA
infarct size [8]: reduced
